# Legend:
# GDNF = GDNF mRNA (real-time PCR) in primary astroglia; format: cell-based, rat; conditions: VPA 0.6 mM
# Experimental: Rat primary astroglias were exposed to 0.6 in M VPA for various times ranging from 6 to 48 hours. Total RNA was extracted from cells by Tri reagent (Sigma) and purified with RNeasy columns (Qiagen, Valencia, Calif.). Expression of the selected genes was quantified using real-time RT-PCR analysis. Briefly, total RNA was reverse transcribed with MuLV reverse transcriptase and oligo-dT primers. The forward and reverse primers for selected genes were designed using Primer Express software. The SYBR green DNA PCR kit (Applied Biosystems, Foster City, Calif.) was used for real-time PCR analysis. The relative differences in expression between groups were expressed using cycle time (Ct) values and the relative differences between groups were expressed as relative increases setting the control as 100%. Assuming that the Ct value is reflective of the initial starting copy and that there is 100% efficacy, a difference of one cycle is equivalent to a two-fold difference in the starting copy.
# [1] = system: dopaminergic neurons in neuron-glia co-cultures; test: [3H]DA uptake in Aβ-treated neuron-glia cultures; format: cell-based, rat; conditions: micro- and femtomolar DM, 30 min pretreatment, Aβ 0.75 μM
# Experimental: Neuron-glia co-cultures were prepared and treated with vehicle alone, Aβ 0.75 μM alone, or DM 30 min prior to treatment with Aβ0.75 μM similar to Example 1. Amyloid-β peptide (25-35 and 1-42) was obtained from American Peptide Co., Inc (Sunnyvale, Calif.). Neurotoxicity was assessed by DA uptake as in Example 1. Results are expressed as a percentage of the control cultures and are the mean±S.E.M. of three to eight individual experiments with triplicates in each experiment. ##, P<0.01 compared with the control culture; *, P<0.05 compared with Aβ-treated culture.
# [2] = system: dopaminergic neurons in PHOX^+/+ and PHOX^−/− mouse neuron-glia cultures; test: [3H]DA uptake in neuron-glia cultures of PHOX+/+ and PHOX−/− mice; format: cell-based; conditions: DM 10^−14 M, LPS 10 ng/ml
# Experimental: To further study the role of ROS in DM-elicited neuroprotection, neuron-glia cultures were prepared from NADPH oxidase-deficient (PHOX^−/−) and wild-type (PHOX^+/+) mice.
# (§1) Neurotoxicity was assessed by DA uptake as described in Example 1. TNFα production was measured by ELISA and iROS was determined by DCFDA as in Example 5. Results are expressed as a percentage of the control culture in FIG. 7A, pg/ml in FIG. 7B, and difference from control in FIG. 7C, respectively, and are the mean±S.E.M. of five individual experiments with triplicates in each experiment. *, P<0.05 compared with LPS culture.
# The rat and mouse ventral mesencephalic neuron-glia cultures were prepared as in Example 1. […] DA neurotoxicity was measured by using the [^3H] DA uptake assay as in Example 1. The data are expressed as the percent of the control cultures and are the mean±SEM. The release of TNFα was measured with a commercially available enzyme-linked immunosorbent assay kit. *P<0.05, **P<0.01, compared to control. The amount of TNFα was measured as in Example 2.
# iROS = iROS production in neuron-glia cultures of PHOX+/+ and PHOX−/− mice; format: cell-based, mouse; conditions: DM 10^−14 M
# Experimental: as §1, with “The neuron-glia cultures were treated with vehicle, LPS 10 ng/ml alone, and DM (10^−14 M) 30 min pretreatment followed by LPS treatment as in Example 1. Neurotoxicity” for “Neurotoxicity”
# iNOS = test: Western blot of iNOS in microglia enriched cultures; format: cell-based, rat; conditions: femto-molar DM, 30 min pretreatment, LPS
# Experimental: Western blots were used to analyze possible effects of DM on iNOS and COX2 production in rat microglia enriched cultures. The cultures were prepared and treated with vehicle, OM DM, 10^−14DM, LPS alone, and LPS with different concentrations of DM. The production of iNOS (inducible nitric oxide synthenase) and COX2 (cycloxyase 2) in the culture extracts were detected by Western Blot assay. Data in FIG. 9B represent the mean±S.E.
# CD-1 mice given LPS/GalN = test: Survival in LPS/GalN endotoxic shock; format: in vivo, mouse; conditions: for Rate of survival % / No. of animals survived: 12 hrs; for Rate of survival: 30 min before and 2, 4 hr after LPS/GalN; for Rate of survival / Survived animal: 12 hours
# Experimental: Animal studies were performed in accordance with National Institutes of Health Guidelines and with the approval of the Institute's Animal Care and Use Committee, and followed NIH guidelines. Male, CD-1 mice (6-week-old) were purchased from Charles River laboratories, fed on a standard diet and with tap water ad libitum for two weeks. Environmental conditions were standardized, including a room temperature of 21° C. and 12 hours artificial lighting. Mice were fasted 12 hrs before use.
# Endotoxic shock was induced in the mice by administering a single intraperitoneal dose of lipopolysaccharide/D-(+/−)Glactosomine (Sigma, St. Louis, Mo.) (LPS/GalN) (20 μg/700 mg/kg) in saline. To test whether DM has protective effects on septic shock, varying concentrations (6.25, 12.5 and 25 mg/kg) of DM were injected into the mice subcutaneously 30 min before, and 2, and 4 hr after the injection of LPS/GalN. Control mice received the same amount of saline. At different time points, the animals were killed, and serum and liver samples were collected.
# To examine the therapeutic effects of DM, animals were treated with […] DM at 30 min before LPS/GalN injection, and 30, 60 and 120 min after LPS/GalN administration. Serum ALT was measured to evaluate the therapeutic effects of the DM. Survival rate was evaluated within 12 hours after endotoxin administration.
# Endotoxic shock were induced in mice in the same was as Example 16. The mice were given LPS/GalN (20 μg/700 mg/kg, ip) with or without the administration of DM (10 mg/kg, 1 μg/kg and 100 pg/kg, s.c.) 30 min before LPS/GalN. The survival rate of the animals was evaluated 12 hrs after LPS/GalN treatment.
smiles,measurement,setting,value
"CCCC(CCC)C(=O)O [VPA, Valproic acid]",GDNF mRNA levels,"GDNF; 12 hours, control as 100%",about 180%
same,GDNF mRNA levels,"GDNF; 24 hours, control as 100%",~265%
same,GDNF mRNA levels,GDNF; 48 hours,back to the control value
"COc1ccc2c(c1)[C@@]13CCCC[C@H]1[C@@H](C2)N(C)CC3 [DM, d-3-methoxy-N-methylmorphinan]",Aβ-induced neurotoxicity (DA uptake),[1],neuroprotective effect
same,LPS-induced reduction of [3H]-dopamine uptake,[2]; PHOX+/+ mice,significantly attenuated this decrease
same,LPS-induced reduction of [3H]-dopamine uptake,[2]; PHOX−/− mice,failed to show any protective effect
same,LPS-induced iROS production,iROS; PHOX+/+ mice,significantly inhibited iROS production
same,LPS-induced iROS production,iROS; PHOX−/− mice,failed to show any effect
same,protein content of iNOS,iNOS,failing to affect the protein content
same,Rate of survival %,CD-1 mice given LPS/GalN; DM 100 pg/kg s.c. 30 min before LPS/GalN,76.6%
same,No. of animals survived,"CD-1 mice given LPS/GalN; DM 100 pg/kg s.c., 47 animals in group",36
same,Rate of survival %,CD-1 mice given LPS/GalN; DM 1 ug/kg s.c. 30 min before LPS/GalN,58.8%
same,No. of animals survived,"CD-1 mice given LPS/GalN; DM 1 ug/kg s.c., 17 animals in group",10
same,Rate of survival,CD-1 mice given LPS/GalN; DM 6.25 mg/kg,67%
same,Rate of survival,"CD-1 mice given LPS/GalN; DM 6.25 mg/kg, listed as Dextromethorphan",66.6%
same,Survived animal,"CD-1 mice given LPS/GalN; DM 6.25 mg/kg, n = 12",8
same,Rate of survival %,CD-1 mice given LPS/GalN; DM 10 mg/kg s.c. 30 min before LPS/GalN,84.6%
same,No. of animals survived,"CD-1 mice given LPS/GalN; DM 10 mg/kg s.c., 26 animals in group",22
same,Rate of survival,CD-1 mice given LPS/GalN; DM 12.5 mg/kg,about 90%
same,Rate of survival,"CD-1 mice given LPS/GalN; DM 12.5 mg/kg, listed as Dextromethorphan",89.3%
same,Survived animal,"CD-1 mice given LPS/GalN; DM 12.5 mg/kg, n = 56",50
same,Rate of survival,CD-1 mice given LPS/GalN; DM 25 mg/kg,about 90%
same,Rate of survival,"CD-1 mice given LPS/GalN; DM 25 mg/kg, listed as Dextromethorphan",91.6%
same,Survived animal,"CD-1 mice given LPS/GalN; DM 25 mg/kg, n = 12",11
same,protection against LPS/GalN-induced lethal shock,CD-1 mice given LPS/GalN; DM 30 min post LPS/GalN challenge,also observed
